Assays:
Assay type in all cases: functional
Bacillus subtilis [1] = assay: Growth inhibition of Bacillus subtilis NCIM 2162 at 1 ug/ml measured after 12 hrs relative to control; settings: NCIM 2162, 12 h, read-out: GI
[2] = system: Mycobacterium tuberculosis; assay: Antitubercular activity against Mycobacterium tuberculosis H37Ra ATCC 25177 dormant stage by XTT dye based two-fold dilution method
Staphylococcus aureus [3] = assay: Growth inhibition of Staphylococcus aureus NCIM 2602 at 30 ug/ml measured after 12 hrs relative to control; settings: NCIM 2602, 12 h, read-out: GI
Pseudomonas fluorescens [4] = assay: Growth inhibition of Pseudomonas fluorescens NCIM 2059 at 30 ug/ml measured after 8 hrs relative to control; settings: NCIM 2059, 8 h, read-out: GI
[5] = system: Mycobacterium tuberculosis; assay: Growth inhibition of Mycobacterium tuberculosis H37Ra ATCC 25177 at 10 ug/ml by XTT dye based two-fold dilution method relative to control; settings: read-out: GI
[6] = system: Mycobacterium tuberculosis; assay: Growth inhibition of Mycobacterium bovis BCG ATCC 35743 at 10 ug/ml by nitrate reductase based two-fold dilution assay relative to control; settings: BCG str. ATCC 35743, read-out: GI
Staphylococcus aureus [7] = assay: Growth inhibition of Staphylococcus aureus NCIM 2602 at 1 ug/ml measured after 12 hrs relative to control; settings: NCIM 2602, 12 h, read-out: GI
Escherichia coli [8] = assay: Growth inhibition of Escherichia coli NCIM 2576 at 10 ug/ml measured after 8 hrs relative to control; settings: NCIM 2576, 8 h, read-out: GI
Staphylococcus aureus [9] = assay: Growth inhibition of Staphylococcus aureus NCIM 2602 at 10 ug/ml measured after 12 hrs relative to control; settings: NCIM 2602, 12 h, read-out: GI
Staphylococcus aureus [10] = assay: Antibacterial activity against Staphylococcus aureus NCIM 2602 measured after 12 hrs; settings: NCIM 2602, 12 h
[11] = system: Mycobacterium tuberculosis; assay: Growth inhibition of Mycobacterium bovis BCG ATCC 35743 at 1 ug/ml by nitrate reductase based two-fold dilution assay relative to control; settings: BCG str. ATCC 35743, read-out: GI
Bacillus subtilis [12] = assay: Growth inhibition of Bacillus subtilis NCIM 2162 at 30 ug/ml measured after 12 hrs relative to control; settings: NCIM 2162, 12 h, read-out: GI
[13] = system: Mycobacterium tuberculosis; assay: Growth inhibition of Mycobacterium tuberculosis H37Ra ATCC 25177 at 30 ug/ml by XTT dye based two-fold dilution method relative to control; settings: read-out: GI
Bacillus subtilis [14] = assay: Antibacterial activity against Bacillus subtilis NCIM 2162 measured after 12 hrs; settings: NCIM 2162, 12 h
Escherichia coli [15] = assay: Growth inhibition of Escherichia coli NCIM 2576 at 1 ug/ml measured after 8 hrs relative to control; settings: NCIM 2576, 8 h, read-out: GI
Bacillus subtilis [16] = assay: Growth inhibition of Bacillus subtilis NCIM 2162 at 10 ug/ml measured after 12 hrs relative to control; settings: NCIM 2162, 12 h, read-out: GI
Pseudomonas fluorescens [17] = assay: Growth inhibition of Pseudomonas fluorescens NCIM 2059 at 10 ug/ml measured after 8 hrs relative to control; settings: NCIM 2059, 8 h, read-out: GI
Escherichia coli [18] = assay: Growth inhibition of Escherichia coli NCIM 2576 at 30 ug/ml measured after 8 hrs relative to control; settings: NCIM 2576, 8 h, read-out: GI
Escherichia coli [19] = assay: Antibacterial activity against Escherichia coli NCIM 2576 measured after 8 hrs; settings: NCIM 2576, 8 h
Pseudomonas fluorescens [20] = assay: Growth inhibition of Pseudomonas fluorescens NCIM 2059 at 1 ug/ml measured after 8 hrs relative to control; settings: NCIM 2059, 8 h, read-out: GI
[21] = system: Mycobacterium tuberculosis; assay: Growth inhibition of Mycobacterium tuberculosis H37Ra ATCC 25177 at 3 ug/ml by XTT dye based two-fold dilution method relative to control; settings: read-out: GI
Pseudomonas fluorescens [22] = assay: Antibacterial activity against Pseudomonas fluorescens NCIM 2059 measured after 8 hrs; settings: NCIM 2059, 8 h
[23] = system: Mycobacterium tuberculosis; assay: Growth inhibition of Mycobacterium bovis BCG ATCC 35743 at 30 ug/ml by nitrate reductase based two-fold dilution assay relative to control; settings: BCG str. ATCC 35743, read-out: GI
[24] = system: Mycobacterium tuberculosis; assay: Antitubercular activity against Mycobacterium bovis BCG ATCC 35743 dormant stage by nitrate reductase based two-fold dilution assay; settings: BCG str. ATCC 35743

SMILES | inhibition of growth at 1 µg/mL (Bacillus subtilis [1]) [%] | IC50 [2] [µM] | MIC90 [2] [µM] | inhibition of growth at 30 µg/mL (Staphylococcus aureus [3]) [%] | inhibition of growth at 30 µg/mL (Pseudomonas fluorescens [4]) [%] | inhibition of growth at 10 µg/mL [5] [%] | inhibition of growth at 10 µg/mL [6] [%] | inhibition of growth at 1 µg/mL (Staphylococcus aureus [7]) [%] | inhibition of growth at 10 µg/mL (Escherichia coli [8]) [%] | inhibition of growth at 10 µg/mL (Staphylococcus aureus [9]) [%] | MIC (Staphylococcus aureus [10]) [µM] | inhibition of growth at 1 µg/mL [11] [%] | inhibition of growth at 30 µg/mL (Bacillus subtilis [12]) [%] | inhibition of growth at 30 µg/mL [13] [%] | MIC (Bacillus subtilis [14]) [µM] | inhibition of growth at 1 µg/mL (Escherichia coli [15]) [%] | inhibition of growth at 10 µg/mL (Bacillus subtilis [16]) [%] | inhibition of growth at 10 µg/mL (Pseudomonas fluorescens [17]) [%] | inhibition of growth at 30 µg/mL (Escherichia coli [18]) [%] | MIC (Escherichia coli [19]) [µM] | further results
Cc1ccc(-c2nc(-c3oc(-c4ccccc4)nc3C)cs2)cc1 | 3.92 | > 100 | > 100 | 31.5 | 30.8 | 15 | 34 | 5.6 | 11.1 | 14.9 | > 100 | 25 | 33.4 | 17 | > 100 | 7.19 | 15.9 | 18.6 | 33.8 | > 100 | inhibition of growth at 1 µg/mL (Pseudomonas fluorescens [20]): 2.57%; inhibition of growth at 3 µg/mL [21]: 13%; MIC (Pseudomonas fluorescens [22]): > 100 µM; inhibition of growth at 30 µg/mL [23]: 34%; IC50 [24]: > 100 µM; MIC90 [24]: > 100 µM
Cc1ccc(-c2nc(-c3oc(-c4ccc(F)cc4)nc3C)cs2)cc1 | 7.61 | > 100 | > 100 | 22.3 | 20.6 | 3 | 5 | 6.75 | 10.5 | 12.8 | > 100 | 3 | 22 | 5 | > 100 | 6.65 | 10.7 | 10.4 | 23.7 | > 100 | inhibition of growth at 1 µg/mL (Pseudomonas fluorescens [20]): 2.41%; MIC (Pseudomonas fluorescens [22]): > 100 µM; inhibition of growth at 30 µg/mL [23]: 5%; IC50 [24]: > 100 µM; MIC90 [24]: > 100 µM
Cc1nc(-c2ccccc2)oc1-c1csc(-c2cccc(Cl)c2)n1 | 24.8 | > 100 | > 100 | 69.4 | 65.8 | 14 | 26 | 20.5 | 51.8 | 55.6 | > 100 | 26 | 69.8 | 27 | > 100 | 24.9 | 57.3 | 56.2 | 68.2 | > 100 | inhibition of growth at 1 µg/mL (Pseudomonas fluorescens [20]): 23.5%; inhibition of growth at 3 µg/mL [21]: 12%; MIC (Pseudomonas fluorescens [22]): > 100 µM; inhibition of growth at 30 µg/mL [23]: 40%; IC50 [24]: > 100 µM; MIC90 [24]: > 100 µM
Cc1nc(-c2ccccc2)oc1-c1csc(-c2ccc(F)c(Cl)c2)n1 | 62 | > 100 | > 100 | 88.5 | 89.6 | 21 | 33 | 70.9 | 74.3 | 80 | > 100 | 16 | 85.6 | 30 | > 100 | 65 | 80.8 | 77.1 | 88 | > 100 | inhibition of growth at 1 µg/mL (Pseudomonas fluorescens [20]): 69.8%; inhibition of growth at 3 µg/mL [21]: 19%; MIC (Pseudomonas fluorescens [22]): > 100 µM; inhibition of growth at 30 µg/mL [23]: 34%; IC50 [24]: > 100 µM; MIC90 [24]: > 100 µM

Source: ChEMBL document CHEMBL4024727, “Synthesis and antimycobacterial screening of new thiazolyl-oxazole derivatives” (Eur J Med Chem, 2017)
